Measured values as given in the supplement of paper PMC13380429.

Columns and labels:
Settings in all cases: 72 h
Caco-2 [1] = assay: cell viability relative to DMSO; higher = less toxic
Calu-3 [2] = assay: as above
HepG2 [3] = assay: as above
U2OS [4] = assay: as above
Vero E6 [5] = assay: as above
Caco-2 [6] = assay: relative viability EC50 (midpoint between 100% and the lowest measured viability); higher = less toxic
Calu-3 [7] = assay: as above
HepG2 [8] = assay: as above
U2OS [9] = assay: as above
Vero E6 [10] = assay: as above
Caco-2 [11] = assay: drug sensitivity score (DSS) for viability; higher = more toxic; extreme values may be limits of the assay
Calu-3 [12] = assay: as above
HepG2 [13] = assay: as above
U2OS [14] = assay: as above
Vero E6 [15] = assay: as above

SMILES | cell viability (Caco-2 [1]; 1 nM) [%] | cell viability (Caco-2 [1]; 10 nM) [%] | cell viability (Caco-2 [1]; 100 nM) [%] | cell viability (Caco-2 [1]; 1000 nM) [%] | cell viability (Caco-2 [1]; 10000 nM) [%] | cell viability (Calu-3 [2]; 1 nM) [%] | cell viability (Calu-3 [2]; 10 nM) [%] | cell viability (Calu-3 [2]; 100 nM) [%] | cell viability (Calu-3 [2]; 1000 nM) [%] | cell viability (Calu-3 [2]; 10000 nM) [%] | cell viability (HepG2 [3]; 1 nM) [%] | cell viability (HepG2 [3]; 10 nM) [%] | cell viability (HepG2 [3]; 100 nM) [%] | cell viability (HepG2 [3]; 1000 nM) [%] | cell viability (HepG2 [3]; 10000 nM) [%] | cell viability (U2OS [4]; 1 nM) [%] | cell viability (U2OS [4]; 10 nM) [%] | cell viability (U2OS [4]; 100 nM) [%] | cell viability (U2OS [4]; 1000 nM) [%] | cell viability (U2OS [4]; 10000 nM) [%] | cell viability (Vero E6 [5]; 1 nM) [%] | cell viability (Vero E6 [5]; 10 nM) [%] | cell viability (Vero E6 [5]; 100 nM) [%] | cell viability (Vero E6 [5]; 1000 nM) [%] | cell viability (Vero E6 [5]; 10000 nM) [%] | relative viability EC50 (Caco-2 [6]) [µM] | relative viability EC50 (Calu-3 [7]) [µM] | relative viability EC50 (HepG2 [8]) [µM] | relative viability EC50 (U2OS [9]) [µM] | relative viability EC50 (Vero E6 [10]) [µM] | drug sensitivity score (Caco-2 [11]) | drug sensitivity score (Calu-3 [12]) | drug sensitivity score (HepG2 [13]) | drug sensitivity score (U2OS [14]) | drug sensitivity score (Vero E6 [15])
O=C(O)P(=O)(O)O [foscarnet] | 97.4 | 103 | 97.5 | 102 | 102 | 110 | 105 | 106 | 91.9 | 93.4 | 102 | 105 | 99.9 | 104 | 96.7 | 104 | 100 | 99.2 | 99.1 | 102 | 106 | 104 | 98.3 | 99.5 | 101 | > 10 | > 10 | > 10 | > 10 | > 10 | 0 | 0 | 0 | 0 | 0
O=c1c(O[C@@H]2O[C@H](CO)[C@H](O)[C@H](O)[C@H]2O)c(-c2ccc(O)c(O)c2)oc2cc(O)cc(O)c12 [hyperin] | 104 | 93.3 | 99 | 107 | 105 | 96.9 | 86.3 | 102 | 104 | 98.9 | 84.8 | 95.7 | 87.3 | 103 | 97.9 | 99.5 | 97.3 | 101 | 98.4 | 100 | 98 | 97.2 | 94 | 97.7 | 108 | > 10 | > 10 | > 10 | > 10 | > 10 | 0 | 0 | 0 | 0 | 0
Cn1cnnc1Sc1c([N+](=O)[O-])ncn1C [MNITMT] | 99.9 | 96.3 | 104 | 94.2 | 95.8 | 100 | 111 | 94.9 | 85.5 | 92.2 | 100 | 99.9 | 93.1 | 94.1 | 99.7 | 102 | 97.7 | 99.5 | 97.4 | 98.4 | 105 | 99.3 | 99.2 | 97.5 | 88.7 | > 10 | > 10 | > 10 | > 10 | > 10 | 0 | 1.7 | 0 | 0 | 0.1
Cc1cc(O)ccc1Cl [chlorocresol] | 109 | 104 | 100 | 97.4 | 95.1 | 99.8 | 92.3 | 96.3 | 105 | 101 | 100 | 100 | 99 | 103 | 102 | 105 | 99.6 | 103 | 97.8 | 100 | 96.2 | 103 | 100 | 111 | 99.4 | > 10 | > 10 | > 10 | > 10 | > 10 | 0 | 0 | 0 | 0 | 0
O=C(N/N=C/c1ccc(O)c(O)c1)c1cc2ccccc2cc1O [dynasore] | 98.4 | 95.8 | 101 | 104 | 92.8 | 108 | 97.5 | 104 | 103 | 97.4 | – | – | – | – | – | 95.9 | 102 | 103 | 106 | 87.9 | 103 | 98.3 | 102 | 103 | 97.2 | > 10 | > 10 | – | > 10 | > 10 | 0 | 0 | – | 0 | 0
N#Cc1ccc(-c2csc(NN=C3CCCC3)n2)cc1 [remodelin] | 95.5 | 99.7 | 94.8 | 103 | 76.6 | 102 | 102 | 96.3 | 116 | 93 | 105 | 97.2 | 109 | 92.3 | 73.1 | 98.3 | 102 | 99.3 | 105 | 95.5 | 98.3 | 103 | 102 | 99.2 | 105 | > 10 | > 10 | – | > 10 | > 10 | 0.7 | 0 | 2.2 | 0 | 0
Nc1nc2c(c(N3CCNCC3)n1)CCC1=C2[C@@H]2CCCC[C@@H]2O1 | 99.3 | 95.5 | 93 | 91.5 | 103 | 104 | 105 | 101 | 106 | 96.4 | 94.8 | 105 | 109 | 102 | 54.2 | 102 | 100 | 99.5 | 98.8 | 101 | 96.3 | 93 | 93.6 | 88.5 | 90 | > 10 | > 10 | – | > 10 | > 10 | 0 | 0 | 2.2 | 0 | 0.1
